Test [1] concerns HCV genotype 1b (Con1) replicon in HUH-7 cells. As to the kind of experiment: HCV replicon luciferase reporter assay, genotype 1b. In kind it is cell-based. The following applies: Hepatitis C virus, Huh-7, 72 h, HCV genotype 1b replicon luciferase, 3 days incubation. The method, boiled down: (§1)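 Replicon inhibition for both genotypes was measured as Renilla luciferase signal (EnduRen, 7.5 μM final, 2 h) after 3-day, 37° C exposure of replicon-bearing HUH-7 cells in 4% FCS DMEM, 0.5% DMSO. The 1b construct carries S1179I; the 1a H77 construct carries P1496L and S2204I. Twenty-point, 3-fold dilutions were fitted four-parametrically for EC50, and CC50 was taken from multiplexed Cell Titer-Blue.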
(Replicon systems follow genome replication, usually without infectious particles.)

Test [2] concerns HCV genotype 1a (H77 strain) replicon in HUH-7 cells. As to the kind of experiment: HCV replicon luciferase reporter assay, genotype 1a. In kind it is cell-based. The note with it: Hepatitis C virus, Huh-7, 72 h, HCV genotype 1a replicon luciferase, 3 days incubation. The procedure, abridged: as §1

Each structure is given as a SMILES string. Like-named read-outs stand apart in the source and are kept apart here. Some results are limits rather than exact numbers.

Take `CC[C@@H]1C[C@H](C)CC/C=C\[C@@H]2C[C@@]2(C(=O)NS(=O)(=O)C2(C)CC2)NC(=O)[C@@H]2C[C@@H](Oc3nccc4c5c(ccc34)N(C)CCO5)CN2C(=O)[C@H]1NC(=O)OC(C)(C)C(C)(F)F` [Compound 5328, 3,3-difluoro-2-methylbutan-2-yl((2R,6S,7R,9R,13aS,14aR,16aS,Z)-7-ethyl-9-methyl-2-((4-methyl-3,4-dihydro-2H-[1,4]oxazino[2,3-f]isoquinolin-7-yl)oxy)-14a-(((1-methylcyclopropyl)sulfonyl)carbamoyl)-5,16-dioxo-1,2,3,5,6,7,8,9,10,11,13a,14,14a,15,16,16a-hexadecahydrocyclopropa[e]pyrrolo[1,2-a][1,4]diazacyclopentadecin-6-yl)carbamate]: the concentration for a half-maximal effect (EC50) in test [1] (read-out: LE_1b (EC50, range)) was less than 5.46 nM; in test [2] (read-out: LE_1a (EC50, range)), less than 5.46 nM.
Take `CC[C@@H]1C[C@H](C)CC/C=C\[C@@H]2C[C@@]2(C(=O)NS(=O)(=O)C2(C)CC2)NC(=O)[C@@H]2C[C@@H](Oc3nccc4c5c(ccc34)N(C)CCO5)CN2C(=O)[C@H]1NC(=O)OC(C)(C)C` [Compound 5330, tert-butyl ((2R,6S,7R,9R,13aS,14aR,16aS,Z)-7-ethyl-9-methyl-2-((4-methyl-3,4-dihydro-2H-[1,4]oxazino[2,3-f]isoquinolin-7-yl)oxy)-14a-(((1-methylcyclopropyl)sulfonyl)carbamoyl)-5,16-dioxo-1,2,3,5,6,7,8,9,10,11,13a,14,14a,15,16,16a-hexadecahydrocyclopropa[e]pyrrolo[1,2-a][1,4]diazacyclopentadecin-6-yl)carbamate]: the EC50 in test [1] (read-out: LE_1b (EC50, range)) was less than 5.46 nM; in test [2] (read-out: LE_1a (EC50, range)), less than 5.46 nM.
With `CC[C@@H]1C[C@@H](C)CC/C=C\[C@@H]2C[C@@]2(C(=O)NS(=O)(=O)C2(C)CC2)NC(=O)[C@@H]2C[C@@H](Oc3nccc4c5c(ccc34)OCCO5)CN2C(=O)[C@H]1NC(=O)OC(C)(C)C(C)(F)F` [Compound 5331, 3,3-difluoro-2-methylbutan-2-yl((2R,6S,7R,9S,13aS,14aR,16aS,Z)-2-((2,3-dihydro-[1,4]dioxino[2,3-f]isoquinolin-7-yl)oxy)-7-ethyl-9-methyl-14a-(((1-methylcyclopropyl)sulfonyl)carbamoyl)-5,16-dioxo-1,2,3,5,6,7,8,9,10,11,13a,14,14a,15,16,16a-hexadecahydrocyclopropa[e]pyrrolo[1,2-a][1,4]diazacyclopentadecin-6-yl)carbamate], the concentration giving a half-maximal response (EC50) in test [1] (read-out: LE_1b (EC50)) was 3.94 nM; in test [1] (read-out: LE_1b (EC50, range)), less than 5.46 nM; in test [2] (read-out: LE_1a (EC50)), 12.8 nM; in test [2] (read-out: LE_1a (EC50, range)), 4.82 to 103 nM.
With `CC[C@@H]1C[C@H](C)CC/C=C\[C@@H]2C[C@@]2(C(=O)NS(=O)(=O)C2(C)CC2)NC(=O)[C@@H]2C[C@@H](Oc3nccc4c5c(ccc34)OCCO5)CN2C(=O)[C@H]1NC(=O)OC(C)(C)C(C)(F)F` [Compound 5332, 3,3-difluoro-2-methylbutan-2-yl((2R,6S,7R,9R,13aS,14aR,16aS,Z)-2-((2,3-dihydro-[1,4]dioxino[2,3-f]isoquinolin-7-yl)oxy)-7-ethyl-9-methyl-14a-(((1-methylcyclopropyl)sulfonyl)carbamoyl)-5,16-dioxo-1,2,3,5,6,7,8,9,10,11,13a,14,14a,15,16,16a-hexadecahydrocyclopropa[e]pyrrolo[1,2-a][1,4]diazacyclopentadecin-6-yl)carbamate], the half-maximal effective concentration (EC50) is less than 5.46 nM in test [1] (read-out: LE_1b (EC50, range)) and less than 5.46 nM in test [2] (read-out: LE_1a (EC50, range)).
In the case of `CC[C@@H]1C[C@@H](C)CC/C=C\[C@@H]2C[C@@]2(C(=O)NS(=O)(=O)C2(C)CC2)NC(=O)[C@@H]2C[C@@H](Oc3nccc4c5c(ccc34)OCCO5)CN2C(=O)[C@H]1NC(=O)OC(C)(C)C(F)(F)F` [Compound 5333, 1,1,1-trifluoro-2-methylpropan-2-yl((2R,6S,7R,9S,13aS,14aR,16aS,Z)-2-((2,3-dihydro-[1,4]dioxino[2,3-f]isoquinolin-7-yl)oxy)-7-ethyl-9-methyl-14a-(((1-methylcyclopropyl)sulfonyl)carbamoyl)-5,16-dioxo-1,2,3,5,6,7,8,9,10,11,13a,14,14a,15,16,16a-hexadecahydrocyclopropa[e]pyrrolo[1,2-a][1,4]diazacyclopentadecin-6-yl)carbamate], the 50% effective concentration (EC50) in test [1] (read-out: LE_1b (EC50, range)) was 4.82 to 103 nM; in test [2] (read-out: LE_1a (EC50, range)), 4.82 to 103 nM.
Turning to `CC[C@@H]1C[C@H](C)CC/C=C\[C@@H]2C[C@@]2(C(=O)NS(=O)(=O)C2(C)CC2)NC(=O)[C@@H]2C[C@@H](Oc3nccc4c5c(ccc34)OCCO5)CN2C(=O)[C@H]1NC(=O)OC(C)(C)C(F)(F)F` [Compound 5334, 1,1,1-trifluoro-2-methylpropan-2-yl((2R,6S,7R,9R,13aS,14aR,16aS,Z)-2-((2,3-dihydro-[1,4]dioxino[2,3-f]isoquinolin-7-yl)oxy)-7-ethyl-9-methyl-14a-(((1-methylcyclopropyl)sulfonyl)carbamoyl)-5,16-dioxo-1,2,3,5,6,7,8,9,10,11,13a,14,14a,15,16,16a-hexadecahydrocyclopropa[e]pyrrolo[1,2-a][1,4]diazacyclopentadecin-6-yl)carbamate], the EC50 was less than 5.46 nM in test [1] (read-out: LE_1b (EC50, range)) and less than 5.46 nM in test [2] (read-out: LE_1a (EC50, range)).
In the case of `CC[C@@H]1C[C@@H](C)CC/C=C\[C@@H]2C[C@@]2(C(=O)NS(=O)(=O)C2CC2)NC(=O)[C@@H]2C[C@@H](Oc3nccc4c5c(ccc34)OCCO5)CN2C(=O)[C@H]1NC(=O)OC(C)(C)C(C)(F)F` [Compound 5335, 3,3-difluoro-2-methylbutan-2-yl((2R,6S,7R,9S,13aS,14aR,16aS,Z)-14a-((cyclopropylsulfonyl)carbamoyl)-2-((2,3-dihydro-[1,4]dioxino[2,3-f]isoquinolin-7-yl)oxy)-7-ethyl-9-methyl-5,16-dioxo-1,2,3,5,6,7,8,9,10,11,13a,14,14a,15,16,16a-hexadecahydrocyclopropa[e]pyrrolo[1,2-a][1,4]diazacyclopentadecin-6-yl)carbamate], the EC50 in test [1] (read-out: LE_1b (EC50)) was 2.03 nM; in test [1] (read-out: LE_1b (EC50, range)), less than 5.46 nM; in test [2] (read-out: LE_1a (EC50)), 6.5 nM; in test [2] (read-out: LE_1a (EC50, range)), 4.82 to 103 nM.
`CC[C@@H]1C[C@H](C)CC/C=C\[C@@H]2C[C@@]2(C(=O)NS(=O)(=O)C2CC2)NC(=O)[C@@H]2C[C@@H](Oc3nccc4c5c(ccc34)OCCO5)CN2C(=O)[C@H]1NC(=O)OC(C)(C)C(C)(F)F` [Compound 5336, 3,3-difluoro-2-methylbutan-2-yl((2R,6S,7R,9R,13aS,14aR,16aS,Z)-14a-((cyclopropylsulfonyl)carbamoyl)-2-((2,3-dihydro-[1,4]dioxino[2,3-f]isoquinolin-7-yl)oxy)-7-ethyl-9-methyl-5,16-dioxo-1,2,3,5,6,7,8,9,10,11,13a,14,14a,15,16,16a-hexadecahydrocyclopropa[e]pyrrolo[1,2-a][1,4]diazacyclopentadecin-6-yl)carbamate]: the EC50 in test [1] (read-out: LE_1b (EC50, range)) was less than 5.46 nM; in test [2] (read-out: LE_1a (EC50, range)), less than 5.46 nM.
Consider `CC[C@@H]1C[C@@H](C)CC/C=C\[C@@H]2C[C@@]2(C(=O)NS(=O)(=O)C2CC2)NC(=O)[C@@H]2C[C@@H](Oc3nccc4c5c(ccc34)OCCO5)CN2C(=O)[C@H]1NC(=O)OC(C)(C)C(F)(F)F` [Compound 5337, 1,1,1-trifluoro-2-methylpropan-2-yl((2R,6S,7R,9S,13aS,14aR,16aS,Z)-14a-((cyclopropylsulfonyl)carbamoyl)-2-((2,3-dihydro-[1,4]dioxino[2,3-f]isoquinolin-7-yl)oxy)-7-ethyl-9-methyl-5,16-dioxo-1,2,3,5,6,7,8,9,10,11,13a,14,14a,15,16,16a-hexadecahydrocyclopropa[e]pyrrolo[1,2-a][1,4]diazacyclopentadecin-6-yl)carbamate], for which the EC50 in test [1] (read-out: LE_1b (EC50, range)) is less than 5.46 nM; in test [2] (read-out: LE_1a (EC50, range)), 4.82 to 103 nM.
Take `CC[C@@H]1C[C@H](C)CC/C=C\[C@@H]2C[C@@]2(C(=O)NS(=O)(=O)C2CC2)NC(=O)[C@@H]2C[C@@H](Oc3nccc4c5c(ccc34)OCCO5)CN2C(=O)[C@H]1NC(=O)OC(C)(C)C(F)(F)F` [Compound 5338, 1,1,1-trifluoro-2-methylpropan-2-yl((2R,6S,7R,9R,13aS,14aR,16aS,Z)-14a-((cyclopropylsulfonyl)carbamoyl)-2-((2,3-dihydro-[1,4]dioxino[2,3-f]isoquinolin-7-yl)oxy)-7-ethyl-9-methyl-5,16-dioxo-1,2,3,5,6,7,8,9,10,11,13a,14,14a,15,16,16a-hexadecahydrocyclopropa[e]pyrrolo[1,2-a][1,4]diazacyclopentadecin-6-yl)carbamate]: the half-maximal effective concentration (EC50) in test [1] (read-out: LE_1b (EC50, range)) was less than 5.46 nM; in test [2] (read-out: LE_1a (EC50, range)), less than 5.46 nM.
As to `CC[C@@H]1C[C@@H](C)CC/C=C\[C@@H]2C[C@@]2(C(=O)NS(=O)(=O)C2(C)CC2)NC(=O)[C@@H]2C[C@@H](Oc3nccc4c5c(ccc34)OCCO5)CN2C(=O)[C@H]1NC(=O)OC(C)(C)C` [Compound 5339, tert-butyl ((2R,6S,7R,9S,13aS,14aR,16aS,Z)-2-((2,3-dihydro-[1,4]dioxino[2,3-f]isoquinolin-7-yl)oxy)-7-ethyl-9-methyl-14a-(((1-methylcyclopropyl)sulfonyl)carbamoyl)-5,16-dioxo-1,2,3,5,6,7,8,9,10,11,13a,14,14a,15,16,16a-hexadecahydrocyclopropa[e]pyrrolo[1,2-a][1,4]diazacyclopentadecin-6-yl)carbamate], the EC50 in test [1] (read-out: LE_1b (EC50, range)) was less than 5.46 nM; in test [2] (read-out: LE_1a (EC50, range)) it was 4.82 to 103 nM.

As usually defined, the EC50 is the concentration needed to bring the measured effect to its halfway point.

For the origin of these results see US9499550B2 (BRISTOL-MYERS SQUIBB COMPANY, priority 2012, dated 2016).
